Test results: patent publication US6017715A (priority 1996, dated 2000)
Converted amounts (≈) assume the structure as drawn.

Tested on: Ceriodaphnia
Details: in vivo; for LC50 value: ceriodaphnia, 48 h

Row | Compound | Actual Sample TUs / Sample TUs after treatment | Residual TUs (after PB Treatment) | LC50 value | Chlorpyrifos TUs | TUs by ELISA | actual toxicity due to the chemical (TUs) | Diazinon TUs
1 | CCCCOCCOCCOCc1cc2c(cc1CCC)OCO2 [PB, piperonyl butoxide] | ~ 1.0 TUs | 1.0 TUs | – | – | – | – | –
2 | CCOP(=S)(OCC)Oc1nc(Cl)c(Cl)cc1Cl [Chlorpyrifos, chlorpyrifos] | – | – | 0.08 ng/mL (≈ 0.228 nM) | 2.2 TUs | 3.2 TUs | 0.5 TUs | –
3 | CCOP(=S)(OCC)Oc1cc(C)nc(C(C)C)n1 [Diazinon, diazinon] | – | – | 0.38 ng/mL (≈ 1.25 nM) | – | 1.9 TUs | 0.9 TUs | 4.5 TUs
